Results: patent US11187705B2, “Method for labeling specifically living microorganisms comprising the use of modified monosaccharide compounds” (CENTRE NATIONAL DE LA RECHERCHE SCIENTIFIQUE (CNRS), priority 2015, dated 2021)

Columns and labels:
Type in all cases: cell-based
[1] = system: Pseudomonas fluorescens Paris; settings: 10 mM, 24 hours; Laboratory strain
[2] = system: Staphylococcus aureus; settings: for labeling (fluorescence, metabolic incorporation of the chemical reporter): 10 mM, 24 hours, Clinical strain; for assimilation by the microorganism (in words): Staphylococcus aureus
[3] = system: Acanthamoebae castellanii; settings: for labeling (fluorescence, metabolic incorporation of the chemical reporter): 10 mM, 24 hours, ATCC 30234; for assimilation by the microorganism (in words): Acanthamoebae castellanii
[4] = system: Cronobacter sakazakii; settings: 10 mM, 24 hours; CIP 103183T
[5] = system: Proteus mirabills; settings: 10 mM, 24 hours; Clinical strain
[6] = system: Salmonella typhimurium 12023; settings: 10 mM, 24 hours; Laboratory strain
[7] = system: Klebsiella pneumoniae (first entry); settings: 10 mM, 24 hours; first Klebsiella pneumoniae line (Table 1 order: CIP 101114)
[8] = system: Bacillus subtilis; settings: for labeling (fluorescence, metabolic incorporation of the chemical reporter): 10 mM, 24 hours, Laboratory strain; for assimilation by the microorganism (in words): Bacillus subtilis
[9] = system: Fusarium; settings: for labeling (fluorescence, metabolic incorporation of the chemical reporter): 10 mM, 24 hours, CNCM 1149-76; for assimilation by the microorganism (in words): Fusarium
[10] = system: Providencia stuartii; settings: 10 mM, 24 hours; Clinical strain
[11] = system: Listeria monocytogenes 1/2; settings: for labeling (fluorescence, metabolic incorporation of the chemical reporter): 10 mM, 24 hours, CIP 82.110pT; for assimilation by the microorganism (in words): Listeria monocytogenes
[12] = system: Neisseria meningitides; settings: 10 mM, 24 hours; CIP 107858
[13] = system: Stenotrophomonas maltophilia; settings: 10 mM, 24 hours; Clinical strain
[14] = system: Geotrichum candidum; settings: for labeling (fluorescence, metabolic incorporation of the chemical reporter): 10 mM, 24 hours, CNCM 1447-83; for assimilation by the microorganism (in words): Geotrichum candidum
[15] = system: Legionella pneumophila sg6; settings: 10 mM, 24 hours; LG 0846 3022
[16] = system: Enterococcus faecalis; settings: for labeling (fluorescence, metabolic incorporation of the chemical reporter): 10 mM, 24 hours, Laboratory strain; for assimilation by the microorganism (in words): Enterococcus faecalis
[17] = system: Serratia marcescens (first entry); settings: 10 mM, 24 hours; first Serratia marcescens line (Table 1 order: CIP 102446)
[18] = system: Candida albicans; settings: for labeling (fluorescence, metabolic incorporation of the chemical reporter): 10 mM, 24 hours, Laboratory strain; for assimilation by the microorganism (in words): Candida albicans
[19] = system: Klebsiella pneumoniae (second entry); settings: 10 mM, 24 hours; second Klebsiella pneumoniae line (Table 1 order: Clinical strain)
[20] = system: Micrococcus luteus; settings: for labeling (fluorescence, metabolic incorporation of the chemical reporter): 10 mM, 24 hours, Laboratory strain; for assimilation by the microorganism (in words): Micrococcus luteus
[21] = system: Vibrio cholerae; settings: 10 mM, 24 hours; CIP 104151
[22] = system: Acinetobacter baumannii; settings: 10 mM, 24 hours; ATCC 17978
[23] = system: Escherichia coli K12; settings: 10 mM, 24 hours; MG1655
[24] = system: Neisseria gonorrhoeae; settings: for labeling (fluorescence, metabolic incorporation of the chemical reporter): 10 mM, 24 hours, CIP 79.18T; for assimilation by the microorganism (in words): Neisseria gonorrhoeae
[25] = system: Staphylococcus epidermis; settings: for labeling (fluorescence, metabolic incorporation of the chemical reporter): 10 mM, 24 hours, Laboratory strain
[26] = system: Legionella pneumophila sg1 Paris; settings: 10 mM, 24 hours; CIP 33152
[27] = system: Escherichia coli O86; settings: 10 mM, 24 hours; Laboratory strain
[28] = system: Serratia marcescens (second entry); settings: 10 mM, 24 hours; second Serratia marcescens line (Table 1 order: Clinical strain)
[29] = system: Staphylococcus aureus aureus; settings: for labeling (fluorescence, metabolic incorporation of the chemical reporter): 10 mM, 24 hours, IP 53-156; for assimilation by the microorganism (in words): Staphylococcus aureus aureus
[30] = system: Aspergillus niger; settings: for labeling (fluorescence, metabolic incorporation of the chemical reporter): 10 mM, 24 hours, Laboratory strain; for assimilation by the microorganism (in words): Aspergillus niger
[31] = system: Bacillus cereus (first entry); settings: 10 mM, 24 hours; first Bacillus cereus line (Table 1 order: Laboratory strain)
[32] = system: Streptococcus agalactiae; settings: 10 mM, 24 hours; Clinical strain
[33] = system: bacteria and Fungi as well as amoebas; experiment: Labeling of living microorganisms, overall statement on all tested strains; settings: broad range of bacteria and Fungi as well as amoebas
[34] = system: Bacillus cereus (second entry); settings: 10 mM, 24 hours; second Bacillus cereus line (Table 1 order: CIP 66.24T)
[35] = system: Staphylococcus saprophyticus; settings: 10 mM, 24 hours; Clinical strain
[36] = system: Enterococcus durans; settings: 10 mM, 24 hours; Laboratory strain
[37] = system: Bacillus cereus paris; settings: 10 mM, 24 hours; Laboratory strain

## [N-]=[N+]=NC[C@@H](O)C1OC(O)(C(=O)O)CC(O)[C@H]1O (some centres unmarked) [Kdo-N3, reference compound]
[1]
  labeling (fluorescence, metabolic incorporation of the chemical reporter): +
[2]
  labeling (fluorescence, metabolic incorporation of the chemical reporter): −
  assimilation by the microorganism (in words): did not assimilate
[3]
  labeling (fluorescence, metabolic incorporation of the chemical reporter): −
  assimilation by the microorganism (in words): did not assimilate
[4]
  labeling (fluorescence, metabolic incorporation of the chemical reporter): +
[5]
  labeling (fluorescence, metabolic incorporation of the chemical reporter): +
[6]
  labeling (fluorescence, metabolic incorporation of the chemical reporter): +
[7]
  labeling (fluorescence, metabolic incorporation of the chemical reporter): +
[8]
  labeling (fluorescence, metabolic incorporation of the chemical reporter): −
  assimilation by the microorganism (in words): did not assimilate
[9]
  labeling (fluorescence, metabolic incorporation of the chemical reporter): −
  assimilation by the microorganism (in words): did not assimilate
[10]
  labeling (fluorescence, metabolic incorporation of the chemical reporter): +
[11]
  labeling (fluorescence, metabolic incorporation of the chemical reporter): −
  assimilation by the microorganism (in words): did not assimilate
[12]
  labeling (fluorescence, metabolic incorporation of the chemical reporter): +
[13]
  labeling (fluorescence, metabolic incorporation of the chemical reporter): +
[14]
  labeling (fluorescence, metabolic incorporation of the chemical reporter): −
  assimilation by the microorganism (in words): did not assimilate
[15]
  labeling (fluorescence, metabolic incorporation of the chemical reporter): +
[16]
  labeling (fluorescence, metabolic incorporation of the chemical reporter): −
  assimilation by the microorganism (in words): did not assimilate
[17]
  labeling (fluorescence, metabolic incorporation of the chemical reporter): +
[18]
  labeling (fluorescence, metabolic incorporation of the chemical reporter): −
  assimilation by the microorganism (in words): did not assimilate
[19]
  labeling (fluorescence, metabolic incorporation of the chemical reporter): +
[20]
  labeling (fluorescence, metabolic incorporation of the chemical reporter): −
  assimilation by the microorganism (in words): did not assimilate
[21]
  labeling (fluorescence, metabolic incorporation of the chemical reporter): +
[22]
  labeling (fluorescence, metabolic incorporation of the chemical reporter): +
[23]
  labeling (fluorescence, metabolic incorporation of the chemical reporter): +
[24]
  labeling (fluorescence, metabolic incorporation of the chemical reporter): −
  assimilation by the microorganism (in words): did not assimilate
[25]
  labeling (fluorescence, metabolic incorporation of the chemical reporter): −
[25]; Staphylococcus epidermis
  assimilation by the microorganism (in words): did not assimilate
[26]
  labeling (fluorescence, metabolic incorporation of the chemical reporter): +
[27]
  labeling (fluorescence, metabolic incorporation of the chemical reporter): +
[28]
  labeling (fluorescence, metabolic incorporation of the chemical reporter): +
[29]
  labeling (fluorescence, metabolic incorporation of the chemical reporter): −
  assimilation by the microorganism (in words): did not assimilate
[30]
  labeling (fluorescence, metabolic incorporation of the chemical reporter): −
  assimilation by the microorganism (in words): did not assimilate

## [N-]=[N+]=NC[C@H]1OC(O)[C@@H](O)[C@@H]1O (stereo partly drawn) [Ara-N3, 5-Azido-5-deoxy-D-arabinofuranose]
[1]
  labeling (fluorescence, metabolic incorporation of the chemical reporter): +
[2]
  labeling (fluorescence, metabolic incorporation of the chemical reporter): +
  assimilation by the microorganism (in words): assimilated
[3]
  labeling (fluorescence, metabolic incorporation of the chemical reporter): +
  assimilation by the microorganism (in words): assimilated
[4]
  labeling (fluorescence, metabolic incorporation of the chemical reporter): +
[5]
  labeling (fluorescence, metabolic incorporation of the chemical reporter): +
[6]
  labeling (fluorescence, metabolic incorporation of the chemical reporter): +
[7]
  labeling (fluorescence, metabolic incorporation of the chemical reporter): +
[31]
  labeling (fluorescence, metabolic incorporation of the chemical reporter): +
[8]
  labeling (fluorescence, metabolic incorporation of the chemical reporter): +
  assimilation by the microorganism (in words): assimilated
[9]
  labeling (fluorescence, metabolic incorporation of the chemical reporter): +
  assimilation by the microorganism (in words): assimilated
[32]
  labeling (fluorescence, metabolic incorporation of the chemical reporter): +
[10]
  labeling (fluorescence, metabolic incorporation of the chemical reporter): +
[11]
  labeling (fluorescence, metabolic incorporation of the chemical reporter): +
  assimilation by the microorganism (in words): assimilated
[12]
  labeling (fluorescence, metabolic incorporation of the chemical reporter): +
[13]
  labeling (fluorescence, metabolic incorporation of the chemical reporter): +
[14]
  labeling (fluorescence, metabolic incorporation of the chemical reporter): +
  assimilation by the microorganism (in words): assimilated
[15]
  labeling (fluorescence, metabolic incorporation of the chemical reporter): +
[33]
  labeling of all tested microorganisms (in words): all tested microorganisms were labeled
[16]
  labeling (fluorescence, metabolic incorporation of the chemical reporter): +
  assimilation by the microorganism (in words): assimilated
[34]
  labeling (fluorescence, metabolic incorporation of the chemical reporter): +
[17]
  labeling (fluorescence, metabolic incorporation of the chemical reporter): +
[18]
  labeling (fluorescence, metabolic incorporation of the chemical reporter): +
  assimilation by the microorganism (in words): assimilated
[19]
  labeling (fluorescence, metabolic incorporation of the chemical reporter): +
[20]
  labeling (fluorescence, metabolic incorporation of the chemical reporter): +
  assimilation by the microorganism (in words): assimilated
[21]
  labeling (fluorescence, metabolic incorporation of the chemical reporter): +
[22]
  labeling (fluorescence, metabolic incorporation of the chemical reporter): +
[23]
  labeling (fluorescence, metabolic incorporation of the chemical reporter): +
[24]
  labeling (fluorescence, metabolic incorporation of the chemical reporter): +
  assimilation by the microorganism (in words): assimilated
[25]
  labeling (fluorescence, metabolic incorporation of the chemical reporter): +
[26]
  labeling (fluorescence, metabolic incorporation of the chemical reporter): +
[35]
  labeling (fluorescence, metabolic incorporation of the chemical reporter): +
[36]
  labeling (fluorescence, metabolic incorporation of the chemical reporter): +
[27]
  labeling (fluorescence, metabolic incorporation of the chemical reporter): +
[28]
  labeling (fluorescence, metabolic incorporation of the chemical reporter): +
[37]
  labeling (fluorescence, metabolic incorporation of the chemical reporter): +
[29]
  labeling (fluorescence, metabolic incorporation of the chemical reporter): +
  assimilation by the microorganism (in words): assimilated
[30]
  labeling (fluorescence, metabolic incorporation of the chemical reporter): +
  assimilation by the microorganism (in words): assimilated
